Here are results for five compounds from paper PMC12320299 (Chemical Science, 2025).

Where only a bound is given, the exact number is not on record here.

For test [1], the system named is SW480. The arrangement: method as in earlier work. Particulars: 96 h incubation; ref 48 (ESI Ref. 1); cited from earlier work.
The test system of test [2] is CH1/PA-1. Details: method as in Ref. 1 (ESI). Particulars: 96 h incubation; ref Ref. 1 (ESI); cited from earlier work.
For test [3], the system named is TP53. Briefly: Immunofluorescence staining of TP53. The format is cell-based, human. The conditions noted are these: SW480, 24 h; 1a 1 μM; etoposide 100 nM. The procedure:
Cell Signaling Technology (Danvers, MA, USA), respectively. Horseradish-peroxidase-linked secondary antibodies, anti-mouse IgG (Fc specific) antibody (#7076S) and anti-rabbit IgG antibody (#7074S) were purchased from Cell Signaling Technology (Danvers, MA, USA). Anti-ß-actin (AC-15) (A5441, 1:2000) was obtained from Sigma-Aldrich (St. Louis, MO, USA).
SW480 and CT26 cells were grown at a density of 6.7x10^4 cells/mL on 8-well glass coverslips (80841, ibidi GmbH, Gräfelfing, Germany) in 300 µL complete media. The next day, cells were treated with respective compounds for 24 h. Cells were fixed with 4%(v/v) paraformaldehyde for 15 min at RT, followed by washing, blocking and permeabilization with 5%(w/v) BSA and […]
(1 : 500) were diluted in 1% BSA-0.3% Triton-X-100 in PBS and incubated overnight at 4 °C.
One well was incubated without primary antibody as background control. Cells were washed and stained with secondary goat anti-mouse AlexaFlour-488 (1 : 500 dilution, A-11029, Thermo Fisher Scientific) or goat anti-rabbit AlexaFlour-488 (1 : 500 dilution, A-11034, Thermo Fisher Scientific) antibodies for 1 h at RT. Following, cells were stained with 0.2% Wheat Germ Agglutinin (WGA)-Rhodamine (RL-1022, Vector Laboratories, Inc.) and 0.1% DAPI (62248, Thermo Fisher Scientific) for staining of plasma membrane and nuclei, respectively, according to manufacturer’s recommendations. […]

Test [4] relates to SW480 cancer cells. Briefly: Cell cycle analysis by flow cytometry (propidium iodide). The format is cell-based, human. Particulars: 24 h; 1a 12.5 to 50 nM; gemcitabine 10 nM.

For `CCC1=C(O)C(=O)c2ccccc2C1=O` [a], the values for the IC50 in test [1] and in test [2] were 100 ± 10 µM and 173 ± 10 µM, respectively.

On to `O=C1C(O)=C(CN2CCOCC2)C(=O)c2ccccc21` [b, 3-morpholine naphthoquinone], for which the IC50 in test [1] was 160 ± 30 µM; in test [2], above 200 µM.

As for `N.N.[Cl][Pt][Cl]` [cisplatin, reference compound], the concentration for half-maximal inhibition (IC50) in test [1] is 2.3 ± 0.2 µM; in test [2] it was 0.073 ± 0.001 µM.

On to `COc1cc([C@@H]2c3cc4c(cc3[C@@H](O[C@@H]3O[C@@H]5CO[C@@H](C)O[C@H]5[C@H](O)[C@H]3O)[C@H]3COC(=O)[C@H]23)OCO4)cc(OC)c1O` [etoposide, reference compound], for which the TP53 immunofluorescence signal result in test [3] is given as “enhanced nuclear accumulation of TP53”.

Consider `Nc1ccn([C@@H]2O[C@H](CO)[C@@H](O)C2(F)F)c(=O)n1` [gemcitabine, reference compound], for which the cell cycle distribution result in test [4] is on record as “G0/G1 arrest”.
